# From US20070212428A1, “METHODS AND COMPOSITIONS FOR TREATING MOOD DISORDER” (MOOD MANAGEMENT SCIENCES, INC., priority 2004, published 2007)
# Where a name gives a salt, the structure may show the parent alone. Read-outs that look alike come from different tables or passages of the source.
# Assays:
# [1] = tested on: dopaminergic, adrenergic, cholinergic, or histaminergic receptors; settings: in vitro; cited from earlier work
# monoamine oxidase = settings: cited from earlier work
# [2] = tested on: serotonin 5-HT1C, 5-HT1D and 5-HT1A receptors; settings: cited from earlier work
# [3] = tested on: cholinergic muscarinic or β1 and β2 adrenergic receptors; settings: cited from earlier work
# [4] = tested on: dopamine D1 and haloperidol-sensitive sigma site; settings: cited from earlier work
# status epilepticus = settings: add-on therapy with other anti-epileptic drugs; cited from earlier work
# bipolar I patients = settings: cited from earlier work
# Dysthymia [5] = assay: Example 10: case, dysthymia with general anxiety disorder; settings: earlier treatment with 40 mg
# [6] = cited from earlier work; for time to peak plasma concentration: after oral dosing; for oral absorption (in words): oral administration; for elimination half-life: plasma
# [7] = tested on: dopamine D1 and D2, muscarinic, serotonin 5HT1A, 5HT2, 5HT3, β-1 and 2 adrenergic, α-1 and α-2 adrenergic, histamine H2 and H3, adenosine A1 and A2, opiate μ …; settings: cited from earlier work
# [8] = tested on: histamine H1, serotonin 5HT1B, benzodiazepine, and chloride channel receptors; settings: cited from earlier work
# [9] = tested on: uptake of glutamate, or choline; settings: cited from earlier work
# [10] = tested on: norepinephrine neuronal reuptake; settings: cited from earlier work
# [11] = tested on: dopamine neuronal reuptake; settings: cited from earlier work
# [12] = tested on: neuronal serotonin reuptake; settings: cited from earlier work
# [13] = cited from earlier work
# [14] = target: serotonin 5-HT2A receptor (Homo sapiens, UniProt P28223); settings: cited from earlier work
# serotonin reuptake site = serotonin reuptake site (Homo sapiens, UniProt P31645); settings: cited from earlier work
# [15] = tested on: cholinergic muscarinic receptors; settings: cited from earlier work
# [16] = tested on: GABAA, BZD, and β adrenergic receptors; settings: cited from earlier work
# [17] = human, in vivo; cited from earlier work
# [18] = tested on: dopamine D2 and D3, serotonin 5-HT2A, 5-HT2C, 5-HT1D and α-adrenergic receptors; settings: cited from earlier work
# 5-HT1A receptor = 5-HT1A receptor (Homo sapiens, UniProt P08908); settings: cited from earlier work
# histamine H1 receptor = histamine H1 receptor (Homo sapiens, UniProt P35367); settings: cited from earlier work
# [19] = tested on: other receptor/binding sites tested, including the cholinergic muscarinic receptor; settings: cited from earlier work
# [20] = tested on: D2, 5-HT2A, and 5-HT1D receptors; settings: cited from earlier work
# Dysthymia [21] = assay: Example 12: method for treating Dysthymia (a person); format: in vivo, human; settings: 10 years prior; 60 mg fluvoxamine, 40 mg paroxetine
# [22] = tested on: cholinergic, muscarinic, and benzodiazepine receptors; settings: cited from earlier work
# human plasma proteins = settings: cited from earlier work
# [23] = tested on: GABA uptake or degradation; settings: cited from earlier work
# GABAA or GABAB = settings: cited from earlier work
# [24] = maintenance treatment over eighteen months
# [25] = quetiapine fumarate (150 mg BID) and divalproex (500 mg BID)
# [26] = 30 mg oral dose, over a 10 day period
# serotonin 5-HT2A receptor, sequence (P28223 whole entry): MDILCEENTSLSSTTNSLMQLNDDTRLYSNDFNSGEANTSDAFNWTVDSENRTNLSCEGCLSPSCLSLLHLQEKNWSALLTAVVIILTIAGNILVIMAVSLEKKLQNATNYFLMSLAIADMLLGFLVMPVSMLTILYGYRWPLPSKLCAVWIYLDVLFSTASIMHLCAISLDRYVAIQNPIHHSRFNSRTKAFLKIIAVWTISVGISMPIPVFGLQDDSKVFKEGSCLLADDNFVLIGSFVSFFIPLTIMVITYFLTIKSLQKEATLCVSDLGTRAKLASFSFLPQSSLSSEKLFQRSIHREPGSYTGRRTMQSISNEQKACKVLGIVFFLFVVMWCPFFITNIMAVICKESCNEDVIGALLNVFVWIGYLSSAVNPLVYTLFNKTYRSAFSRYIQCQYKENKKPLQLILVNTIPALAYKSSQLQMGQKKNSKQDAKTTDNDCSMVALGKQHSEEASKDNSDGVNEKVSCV
# histamine H1 receptor, sequence (P35367 whole entry, species assumed): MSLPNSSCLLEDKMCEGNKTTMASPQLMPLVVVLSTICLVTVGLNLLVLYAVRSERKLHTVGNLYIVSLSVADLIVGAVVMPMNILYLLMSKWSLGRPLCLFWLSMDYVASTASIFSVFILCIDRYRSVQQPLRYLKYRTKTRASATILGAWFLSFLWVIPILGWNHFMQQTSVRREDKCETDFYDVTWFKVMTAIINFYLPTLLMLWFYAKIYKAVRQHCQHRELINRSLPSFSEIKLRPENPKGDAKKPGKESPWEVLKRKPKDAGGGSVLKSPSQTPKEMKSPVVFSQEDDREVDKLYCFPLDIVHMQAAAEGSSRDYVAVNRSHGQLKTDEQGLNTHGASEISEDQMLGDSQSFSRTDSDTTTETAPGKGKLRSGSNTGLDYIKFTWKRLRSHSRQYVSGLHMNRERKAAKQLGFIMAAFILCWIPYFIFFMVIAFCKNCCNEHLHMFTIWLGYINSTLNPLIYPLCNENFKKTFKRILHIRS
# 5-HT1A receptor, sequence (P08908 whole entry): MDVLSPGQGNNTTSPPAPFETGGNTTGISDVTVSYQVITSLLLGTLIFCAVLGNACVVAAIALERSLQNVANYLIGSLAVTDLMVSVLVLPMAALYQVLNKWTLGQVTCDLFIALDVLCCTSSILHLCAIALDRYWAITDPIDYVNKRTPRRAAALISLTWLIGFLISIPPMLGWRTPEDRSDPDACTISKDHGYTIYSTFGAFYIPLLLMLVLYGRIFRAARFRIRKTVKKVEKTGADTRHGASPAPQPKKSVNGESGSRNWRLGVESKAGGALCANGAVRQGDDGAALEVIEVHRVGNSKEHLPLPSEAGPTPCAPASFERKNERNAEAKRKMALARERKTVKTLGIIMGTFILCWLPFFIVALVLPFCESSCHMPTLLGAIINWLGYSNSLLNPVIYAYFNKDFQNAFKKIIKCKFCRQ
# serotonin reuptake site, sequence (P31645 whole entry): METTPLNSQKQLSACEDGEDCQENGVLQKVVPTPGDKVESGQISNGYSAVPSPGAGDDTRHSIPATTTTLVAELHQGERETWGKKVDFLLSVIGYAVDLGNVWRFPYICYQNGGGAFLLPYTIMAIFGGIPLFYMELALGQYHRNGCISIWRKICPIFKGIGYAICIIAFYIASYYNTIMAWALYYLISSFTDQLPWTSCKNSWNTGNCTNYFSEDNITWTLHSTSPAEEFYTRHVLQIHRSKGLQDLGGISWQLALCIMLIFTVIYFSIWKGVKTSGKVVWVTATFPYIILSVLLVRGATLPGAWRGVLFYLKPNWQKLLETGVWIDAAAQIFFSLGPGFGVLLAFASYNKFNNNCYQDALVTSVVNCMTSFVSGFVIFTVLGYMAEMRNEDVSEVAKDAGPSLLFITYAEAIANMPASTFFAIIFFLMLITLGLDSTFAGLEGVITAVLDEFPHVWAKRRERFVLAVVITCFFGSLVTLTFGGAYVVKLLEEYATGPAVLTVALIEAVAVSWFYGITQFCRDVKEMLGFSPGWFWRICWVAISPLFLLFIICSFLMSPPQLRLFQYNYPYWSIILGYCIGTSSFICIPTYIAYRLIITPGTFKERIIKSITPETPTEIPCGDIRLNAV
compound,measurement,setting,value
"CNCC[C@H](Oc1cccc2ccccc12)c1cccs1.Cl [duloxetine, (+)-(S)-N-methyl-γ-(1-naphthyloxy)-2-thiophenepropylamine hydrochloride]",affinity,[1],no significant affinity
same,inhibition of monoamine oxidase,monoamine oxidase,does not inhibit
"Cc1nc2n(c(=O)c1CCN1CCC(c3noc4cc(F)ccc34)CC1)CCCC2 [risperidone, 3-[2-[4-(6-fluoro-1,2-benzisoxazol-3-yl)piperidino]ethyl]-2-methyl-6,7,8,9-tetrahydro-4H-pyrido-[1,2-a]pyrimidin-4-one]",affinity,[2],low to moderate affinity
same,affinity,[3],no affinity
same,affinity,[4],weak affinity
"Nc1nnc(-c2cccc(Cl)c2Cl)c(N)n1 [lamotrigine, 3,5-diamino-6-(2,3-dichlorophenyl)-1,2,4-triazine]",plasma concentration generally effective in controlling SE,status epilepticus,about 24 μg/ml
same,delay of time to occurrence of a mood episode,"bipolar I patients; approximately 200 mg/day, ranging from 100 mg/day to 400 mg/day",effective in delaying the time to occurrence of a mood episode
same,mood pole against which predominantly effective,bipolar I patients; [24],predominantly effective against depression
same,prevention of mood episodes compared with placebo,bipolar I patients; [24],superior to placebo
"CNCCC(Oc1ccc(C(F)(F)F)cc1)c1ccccc1.Cl (racemic) [fluoxetine, (±)-N-methyl-3-phenyl-[(α,α,α-trifluoro-p-tolyl)oxyl]propylamine hydrochloride]",effect on depressive symptoms,Dysthymia [5],decreased depressive symptoms
same,adverse effect,Dysthymia [5]; subsequently discontinued,“dulled” the patient cognitively
same,half life,[6]; following acute administration,24 to 72 h
"Cc1ccsc1C(=CCCN1CCC[C@@H](C(=O)O)C1)c1sccc1C [tiagabine, (−)-®-1-[4,4-Bis(3-methyl-2-thienyl)-3-butenyl]nipecotic acid hydrochloride]",binding,[7],little or no binding
same,binding,[8],at concentrations greatly exceeding that is needed to inhibit the uptake of GABA
same,inhibition of uptake of glutamate or choline,[9],does not significantly inhibit
same,effect on norepinephrine reuptake (in words),[10],does not significantly inhibit
same,effect on dopamine reuptake (in words),[11],does not significantly inhibit
same,inhibition of serotonin reuptake (in words),[12],does not significantly inhibit
same,time to peak plasma concentration,[6],approximately 45 minutes
same,fraction excreted in the feces,[6]; as metabolites,63%
same,fraction excreted renally,[6]; as metabolites,25%
same,fraction excreted unchanged,"[6]; human, in vivo",2%
same,oral absorption (in words),[6],rapid
"O=C1CCc2ccc(OCCCCN3CCN(c4cccc(Cl)c4Cl)CC3)cc2N1 [aripiprazole, 7-[4-[4-(2,3-dichlorophenyl)-1-piperazinyl]butoxy]-3,4-dihydrocarbostyril]",pharmacokinetics,[13]; lithium (1200-1800 mg/day) for 21 days with aripiprazole (30 mg/day),did not result in clinically significant changes
same,functional activity,[14],antagonist
same,affinity,serotonin reuptake site,moderate affinity
same,affinity,[15],no appreciable affinity
same,oral absorption (in words),[6],well absorbed
"Cc1cc2c(s1)Nc1ccccc1N=C2N1CCN(C)CC1 [olanzapine, 2-methyl-4-(4-methyl-1-piperazinyl)-10H-thieno[2,3-b][1,5]benzodiazepine]",binding,[16],binds weakly
"NC(=O)N1c2ccccc2CC(=O)c2ccccc21 [oxcarbazepine, 10,11-dihydro-10-oxo-5H-dibenzo[b,f]azepine-5-carboxamide]",tolerability of dose,[17],not be able to tolerate
same,elimination half-life,[6],about 2 hours
"O=C1Cc2cc(CCN3CCN(c4nsc5ccccc45)CC3)c(Cl)cc2N1 [ziprasidone, 5-[2-[4-(1,2-benzoisothiazol-3-yl)-1-piperazinyl]ethyl]-6-chloro-1,3-dihydro-2H-indol-2-one]",in vitro binding affinity,[18],high in vitro binding affinity
same,functional activity,5-HT1A receptor,agonist
same,effect on norepinephrine reuptake (in words),[10],inhibited
same,in vitro binding affinity,histamine H1 receptor,moderate affinity
same,affinity,[19],No appreciable affinity
same,inhibition of serotonin reuptake (in words),[12],inhibited
same,functional activity,[20],antagonist
same,elimination half-life,[6],about 7 hours
same,time to steady state plasma concentrations,[6]; repeated dosing,one to three
COCCCC/C(=N\OCCN)c1ccc(C(F)(F)F)cc1 [fluvoxamine],outcome of prior antidepressant trials,Dysthymia [21],unsuccessfully
"OCCOCCN1CCN(C2=Nc3ccccc3Sc3ccccc32)CC1 [quetiapine, 5-[2-(4-dibenzo[b,f][1,4]thiazepin-11-yl-1-piperazinyl)ethoxy]ethanol fumarate]",extent of absorption or mean oral clearance,[13]; [25],without affecting
same,increase of mean maximum plasma concentration at steady state,[13]; [25],17%
same,steady-state pharmacokinetics,"[13]; quetiapine fumarate (300 mg BID) with fluoxetine (60 mg once daily), haloperidol (7.5 mg BID) or risperidone (3 mg BID)",did not alter
same,affinity,[22],no appreciable affinity
same,time to peak plasma concentration,[6],1.5 h
same,elimination half-life,[6],about 6 hours
same,time to steady state plasma concentrations,[6]; repeated dosing,two
"Fc1ccc([C@@H]2CCNC[C@H]2COc2ccc3c(c2)OCO3)cc1 [paroxetine, (−)-trans-4R-(4′-fluorophenyl)-3S-[(3′,4′-methylenedioxyphenloxy)methyl]piperidine hydrochloride hemihydrate]",effect on norepinephrine reuptake (in words),[10],only very weak effects
same,effect on dopamine reuptake (in words),[11],only very weak effects
same,outcome of prior antidepressant trials,Dysthymia [21],unsuccessfully
same,fraction of dose renally excreted,[6]; [26],Approximately 64%
same,fraction of dose renally excreted as metabolites,[6]; [26],62%
same,fraction of dose renally excreted as the parent compound,[6]; [26],2%
same,fraction of dose excreted in the feces,[6]; 30 mg oral dose,36%
same,oral absorption (in words),[6],completely absorbed
same,time to steady state plasma concentrations,[6]; repeated dosing,approximately 10 days
"CN(C)CCC[C@@]1(c2ccc(F)cc2)OCc2cc(C#N)ccc21 [escitalopram, S-(+)-1-[3-(dimethylamino)propyl]-1-(p-fluorophenyl)-5-phthalancarbonitrile oxalate]",binding to human plasma proteins,human plasma proteins,approximately 56%
same,effect on norepinephrine reuptake (in words),[10],minimal effects
same,effect on dopamine reuptake (in words),[11],minimal effects
same,time to peak plasma concentration,[6],about 5 hours
same,time to steady state plasma concentrations,[6]; daily dosing,a week
same,increase of half life in elderly patients,[6]; elderly patients,approximately 50%
same,elimination half-life,[6],27 to 32 h
1-(aminoethyl)cyclohexaneacetic acid [gabapentin],effect on norepinephrine reuptake (in words),[10],does not alter
same,effect on dopamine reuptake (in words),[11],does not alter
same,inhibition of GABA uptake or degradation,[23],not an inhibitor
same,effect on radioligand binding,GABAA or GABAB,does not modify
